This note sets out measurements from ChEMBL document CHEMBL1138930, “Discovery of novel triazole-based opioid receptor antagonists” (J Med Chem, 2006).

Molecules are shown by their SMILES.

In test [1] the target is Delta-type opioid receptor (Mus musculus) (UniProt P32300). Put plainly: Inhibition of (-)-[9-3H]bremazocine binding to delta opioid receptor at 10 uM.
For test [2], the target named is Mu-type opioid receptor (Mus musculus) (UniProt P42866). Description: Inhibition of (-)-[9-3H]bremazocine binding to mu opioid receptor expressed in HEK293 cells.
Sequence of Mu-type opioid receptor (Mus musculus) (P42866 whole entry, looked up): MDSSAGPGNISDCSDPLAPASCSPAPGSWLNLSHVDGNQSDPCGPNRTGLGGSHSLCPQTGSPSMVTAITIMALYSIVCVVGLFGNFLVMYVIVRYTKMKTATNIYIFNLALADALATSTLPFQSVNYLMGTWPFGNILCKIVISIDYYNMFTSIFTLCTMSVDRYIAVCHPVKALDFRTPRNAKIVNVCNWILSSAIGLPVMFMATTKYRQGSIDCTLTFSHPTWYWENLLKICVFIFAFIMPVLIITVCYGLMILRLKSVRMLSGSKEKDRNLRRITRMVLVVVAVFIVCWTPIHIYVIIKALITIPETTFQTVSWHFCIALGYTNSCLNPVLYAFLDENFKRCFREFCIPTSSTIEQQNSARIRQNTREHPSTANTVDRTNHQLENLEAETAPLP
The target is the same in test [3]. Description: Inhibition of (-)-[9-3H]bremazocine binding to mu opioid receptor at 10 uM.
Test [4] addresses Kappa-type opioid receptor (Rattus norvegicus) (UniProt P34975). Put plainly: Inhibition of (-)-[9-3H]bremazocine binding to kappa opioid receptor expressed in HEK293 cells.
The target is the same in test [5]. Put plainly: Inhibition of (-)-[9-3H]bremazocine binding to kappa opioid receptor at 10 uM.
For test [6], the target named is Delta-type opioid receptor (Mus musculus) (UniProt P32300). Description: Inhibition of (-)-[9-3H]bremazocine binding to delta opioid receptor expressed in HEK293 cells.
In test [7] the test system is Delta and mu opioid receptors (Mus musculus). Description: Selectivity for delta opioid receptor over mu opioid receptor.
The test system of test [8] is Delta (Mus musculus) and kappa (Rattus norvegicus) opioid receptors. Put plainly: Selectivity for delta opioid receptor over kappa opioid receptor.

Sequence of Delta-type opioid receptor (Mus musculus) (P32300 whole entry, looked up): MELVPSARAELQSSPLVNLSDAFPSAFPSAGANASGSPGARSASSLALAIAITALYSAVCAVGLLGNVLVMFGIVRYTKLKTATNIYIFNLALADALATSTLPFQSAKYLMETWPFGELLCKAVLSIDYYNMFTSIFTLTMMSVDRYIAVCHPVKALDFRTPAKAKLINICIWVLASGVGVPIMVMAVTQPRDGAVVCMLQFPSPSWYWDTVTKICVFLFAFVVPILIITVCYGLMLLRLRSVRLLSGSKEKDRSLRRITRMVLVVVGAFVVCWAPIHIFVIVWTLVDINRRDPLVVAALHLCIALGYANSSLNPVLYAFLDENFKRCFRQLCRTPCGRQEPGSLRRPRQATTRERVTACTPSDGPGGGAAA
Sequence of Kappa-type opioid receptor (Rattus norvegicus) (P34975 whole entry, looked up): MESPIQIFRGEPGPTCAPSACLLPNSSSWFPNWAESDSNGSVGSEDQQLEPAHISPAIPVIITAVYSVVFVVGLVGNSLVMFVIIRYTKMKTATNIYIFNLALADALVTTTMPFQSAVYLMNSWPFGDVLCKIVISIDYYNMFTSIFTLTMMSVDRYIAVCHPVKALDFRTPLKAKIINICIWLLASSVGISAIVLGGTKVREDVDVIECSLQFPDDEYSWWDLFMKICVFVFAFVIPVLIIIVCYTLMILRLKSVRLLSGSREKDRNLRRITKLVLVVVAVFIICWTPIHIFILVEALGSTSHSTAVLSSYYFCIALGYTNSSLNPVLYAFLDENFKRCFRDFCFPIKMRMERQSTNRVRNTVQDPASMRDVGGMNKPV

For the molecule `Oc1cccc(-n2cnnc2-c2ccc(-c3ccccc3)cc2)c1`, the inhibition in test [1] turned out to be 75%; in test [3], 60%; in test [5] it was 46%. Besides, the Ki was greater than 10 µM in test [2], greater than 10 µM in test [4] and 1.5 µM in test [6].
For the molecule `CN(C)CCc1nnc(-c2ccc(C(C)(C)C)cc2)n1-c1cccc(O)c1`, the inhibition stood at 90% in test [1], 23% in test [3] and 19% in test [5]. In addition, the inhibitory constant (Ki) in test [2] is greater than 10 µM; in test [4] it was greater than 10 µM; in test [6] it was 0.9 µM.
Regarding `Oc1cccc(-n2cnnc2-c2ccc3ccccc3c2)c1`, the Selectivity ratio in test [7] and in test [8] was greater than 4.76 in each case. Also, the inhibition worked out at 68% in test [1], 48% in test [3] and 27% in test [5]. For the same molecule, the inhibitory constant (Ki) in test [2] was greater than 10 µM; in test [4] it was greater than 10 µM; in test [6], 2.1 µM.
For `CN(C)Cc1nnc(-c2ccc(C(C)(C)C)cc2)n1-c1cccc(O)c1`, in test [4], the Ki is greater than 10 µM. This molecule gave an inhibition in test [5] of 9%.
With `CN(C)c1nnc(-c2ccc(C(C)(C)C)cc2)n1-c1ccc(O)cc1`, the inhibition worked out at 27% in test [1], 8% in test [3] and 21% in test [5]. Also, the inhibition constant (Ki) in test [2], in test [4] and in test [6] was greater than 10 µM each time.
On to `CN(C)c1nnc(-c2ccc3ccccc3c2)n1-c1cccc(O)c1`, for which the Selectivity ratio in test [7] and in test [8] was greater than 20.8 each time. Also, the inhibition came out at 68% in test [1], 48% in test [3] and 27% in test [5]. The Ki in test [2] was greater than 10 µM; in test [4], greater than 10 µM; in test [6] it was 0.48 µM.
With `CN(C)c1nnc(-c2cccc(-c3ccccc3)c2)n1-c1cccc(O)c1`, the Selectivity ratio in test [7] and in test [8] was greater than 66.6 in each case. Besides, the inhibition turned out to be 86% in test [1], 23% in test [3] and 8% in test [5]. Further, the Ki in test [2] was greater than 10 µM; in test [4] it was greater than 10 µM; in test [6], 0.15 µM.
`COc1cccc(-n2cnnc2-c2cccc(C(C)(C)C)c2)c1` gave a Ki in test [4] greater than 10 µM. This molecule had an inhibition in test [5] of 5%.
As for `CN(C)c1nnc(-c2ccc(C(C)(C)C)cc2)n1-c1cccc(O)c1`, the Selectivity ratio is 80 in test [7] and greater than 200 in test [8]. Further, the inhibition was 94% in test [1], 32% in test [3] and 6% in test [5]. Besides, the Ki in test [2] is 4 µM; in test [4], greater than 10 µM; in test [6], 0.05 µM.
On to `CN(C)Cc1nnc(-c2cccc(C(C)(C)C)c2)n1-c1cccc(O)c1`, for which the inhibition in test [1] came out at 65%. The same molecule registered an inhibitory constant (Ki) in test [6] of 2.6 µM.
For `CN1CCN(c2nnc(-c3ccc(C(C)(C)C)cc3)n2-c2cccc(O)c2)CC1`, the inhibition came to 18% in test [1], 5% in test [3] and 12% in test [5]. Besides, the inhibition constant Ki in test [2], in test [4] and in test [6] was greater than 10 µM in each case.
`CN(C)c1nnc(-c2ccc(-c3ccccc3)cc2)n1-c1cccc(O)c1`: the inhibition was determined as 82% in test [1], 15% in test [3] and 11% in test [5]. The inhibitory constant (Ki) was greater than 10 µM in test [2], greater than 10 µM in test [4] and 0.13 µM in test [6].
Regarding `Oc1cccc(-n2cnnc2-c2cccc(-c3ccccc3)c2)c1`, the Selectivity ratio in test [7] was 7.14; in test [8], greater than 71.4. The values for the inhibition in test [1], in test [3] and in test [5] were 84%, 84% and 42%, respectively. The inhibitory constant (Ki) in test [4] is greater than 10 µM.
In the case of `COc1cccc(-n2cnnc2-c2ccc(C(C)(C)C)cc2)c1`, the Ki in test [2] and in test [4] was greater than 10 µM throughout. Besides, the inhibition in test [3] is 9%; in test [5] it was 8%.
As to `CC(C)(C)c1ccc(-c2nncn2-c2cccc(O)c2)cc1`, the inhibition was found to be 54% in test [1], 16% in test [3] and 16% in test [5]. Besides, the inhibitory constant (Ki) in test [2] is greater than 10 µM; in test [4], greater than 10 µM; in test [6], 10 µM.
For `COc1cccc(-n2c(-c3ccc(C(C)(C)C)cc3)nnc2N(C)C)c1`, the inhibition is 28% in test [1], 50% in test [3] and 3% in test [5]. The inhibition constant (Ki) in test [2], in test [4] and in test [6] was greater than 10 µM in each case.
For the molecule `CN(C)c1nnc(-c2cccc(C(C)(C)C)c2)n1-c1cccc(O)c1`, the results for the inhibition in test [1], in test [3] and in test [5] were 76%, 19% and 6%, respectively. Also, the Ki in test [2] is greater than 10 µM; in test [4] it was greater than 10 µM; in test [6], 1.05 µM.
Regarding `CC(C)(C)c1cccc(-c2nncn2-c2cccc(O)c2)c1`, the values for the Selectivity ratio in test [7] and in test [8] were 3.7 and 6.52, respectively. The inhibition in test [1] was 91%; in test [3] it was 78%; in test [5] it was 66%. For the same molecule, the Ki was determined as 0.85 µM in test [2], 1.5 µM in test [4] and 0.23 µM in test [6].

One may read the inhibition as the drop in the measured response relative to a control, in per cent. Broadly, the Ki is a measure of affinity in units of concentration, obtained from inhibition or displacement.
